Laboratory results reported in PMC6162693, “Investigation into the Thermal Response and Pharmacological Activity of Substituted Schiff Bases on α-Amylase and α-Glucosidase” (Antioxidants, 2018).
Values after ≈ are worked out from the molar mass of the structure shown. Like-named read-outs stand apart in the source and are kept apart here.

Tests used:
[1] = target: α-amylase; assay: α-Amylase inhibitory activity; assay type: biochemical; details: Means ×10^2 ± SD from at least three experiments
Procedure: The α-amylase inhibitory activity of Schiff bases (1–9) was evaluated by the method reported by Xiao et al. with slight modifications. Substrate solution is prepared by dissolving 1.0 g of starch in 50 mL of 0.4 M NaOH and heated at 100 °C for 5 min. The substrate solution was adjusted to a neutral pH by the addition of 0.1 M HCl, cooled on crushed ice and made to 100 mL in a standard volumetric flask with distilled water. […] Using a microplate, 40 μL substrate and 20 μL Schiff base solution were mixed, then preincubated at 37 °C for 3 min. Thereafter, 20 μL of 50 μg/mL α-amylase solution was dispensed into each well, and further incubated for 15 min. The reaction was terminated by the addition of 80 μL HCl (0.1 M); followed by 200 μL of 1 mM iodine solution, and the absorbances measured at 650 nm. Inhibitory activity was calculated from Equation (5):(5) α − amylase inhibition (%) = (A2 − A1/A4 − A3)100 where A1 is the absorbance of Schiff base, starch, and α-amylase solution after incubation, A2 is the absorbance of Schiff base and starch solution after incubation, A3 is the absorbance of starch and amylase solution after incubation, and A4 is the absorbance of a starch solution after incubation. Thereafter, the IC50 value was determined from the plot of % inhibition versus concentration.

[2] = test system: Aspergillus niger; assay: Broth microdilution antimicrobial assay, A. niger; assay type: cell-based
Procedure: (§1) Exactly 1.5 mg of sodium;10-oxido-7-oxophenoxazin-10-ium-3-olate was dissolved in 100 mL of distilled water, vortexed, filtered, sterilised, and stored at 4 °C for a maximum of 14 days before being applied as a growth indicator. 1000 μM stock solution of Schiff bases (1–9) was prepared in DMSO.
(§2) Fungi (Aspergillus niger, Candida albicans), Gram-positive bacteria (Staphylococcus aureus, Enterococcus faecalis), and Gram-negative bacteria (Salmonella typhi, Escherichia coli).
(§3) Colonies from a 24 h culture agar plate were collected with a loop and transferred to a tube containing lysogeny broth (LB). The various suspensions were incubated at 37 °C and the size adjusted to 1.5 × 10^6 CFU/mL [27].
(§4) The antimicrobial activity of Schiff bases (1–9), was evaluated using 96-well broth microdilution method as described by de Rapper et al. (2013) and Akhalwaya et al. (2018) with slight modifications. Columns 1–11 was filled 50 µL LB, followed by the addition of 50 µL of Schiff base to column 1. Thereafter, 50 µL of Schiff bases from column 1 was transferred by multichannel pipette to columns 2–10, resulting in 50 µL Schiff bases per well. Column 11 contained 100 µL of diluted standardised inoculum, while Column 12 contained 100 µL of LB as a control to monitor sterility. Then, 50 µL of the microorganism suspension was then added to columns 1–10 and the control column 11. The plates were incubated at 37 °C for 24 h, followed by the addition of 30 µL of growth indicator solution and further incubated for 2 h for the observation of colour change. On completion of incubation, the columns with blue indicator colour were reported as the MIC (µM) values. The columns with a concentration higher than the MIC value were plated on nutrient agar to determine the minimum bactericidal and fungicidal concentrations.

[3] = Radical scavenging over DPPH, ABTS and H2O2 assays; details: lower limit over the three radical assays; read-out: IC50 values for quenching the radicals (lowest over DPPH, ABTS, H2O2)
Procedure: (§5) The antioxidant activities of Schiff bases (1–9) were determined by DPPH, ABTS^+, H2O2, ferric reducing power assays, and compared with 3,4,5-trihydroxybenzoic acid (10), 5-(1,2-dihydroxyethyl)-3,4-dihydroxyfuran-2(5H)-one (11), and 2-(3,4-dihydroxyphenyl)-3,5,7-trihydroxy-4H-chromen-4-one (12) (as controls).
The scavenging activity of compounds (1–12) was evaluated by adding an ethanolic solution of DPPH (300 μL, 0.05 mM) and incubated for 30 min in the dark. After that, changes in the absorbance of the mixture were measured at 517 nm on a UV-Vis spectrophotometer. […]
A mixture of ABTS (960.2 mg) and potassium persulphate (165.6 mg) was dissolved in 250 mL of distilled water to generate the blue-green ABTS^+ solution. The ABTS solution was stored away in the dark at ambient temperature for 24 h to generate sufficient ABTS radical cation (ABTS^+), then the absorbance was adjusted to 0.9547 with distilled water. […] Changes in concentration of ABTS^+ were measured at 734 nm on a spectrophotometer. […] The IC50 (μM) of the compounds were determined by linear regression analysis, and all analyses were carried out in triplicate. […]
According to the methods of Ruch et al., the H2O2 scavenging activity of compounds (1–12) was evaluated. […] The absorbance of the mixture was measured at 230 nm, thereafter, the %H2O2 scavenging activity (Equation (4)) and IC50 (μM) of the compounds 1–12 was determined. […]

[4] = H2O2-scavenging activity; details: absorbance at 230 nm; mean ± SD (n = 3)
Procedure: as §5
According to the methods of Ruch et al., the H2O2 scavenging activity of compounds (1–12) was evaluated. To 100 µL aliquot of the test compounds was added 0.4 mL of 50 mM phosphate buffer followed by 0.6 mL of 2 mM H2O2 solution prepared in 50 mM phosphate buffer (pH 6.8). The absorbance of the mixture was measured at 230 nm, thereafter, the %H2O2 scavenging activity (Equation (4)) and IC50 (μM) of the compounds 1–12 was determined. All analyses were carried out in triplicate. (4) % H2O2 − scavenging activity = 100⌊(Abs. of H2O2 − Abs. of test compound)/(Abs. of H2O2)⌋

[5] = test system: Enterococcus faecalis; assay: Broth microdilution antimicrobial assay, E. faecalis; assay type: cell-based; details: for MBC: Enterococcus faecalis, read-out: MBC E. faecalis
Procedure: as §1, §2, §3, §4

[6] = test system: Escherichia coli; assay: Broth microdilution antimicrobial assay, E. coli; assay type: cell-based; details: for MBC: Escherichia coli, read-out: MBC E. coli
Procedure: as §1, §2, §3, §4

[7] = ABTS radical cation decolourisation assay; details: absorbance at 734 nm, 30 min; mean ± SD (n = 3)
Procedure: as §5
A mixture of ABTS (960.2 mg) and potassium persulphate (165.6 mg) was dissolved in 250 mL of distilled water to generate the blue-green ABTS^+ solution. The ABTS solution was stored away in the dark at ambient temperature for 24 h to generate sufficient ABTS radical cation (ABTS^+), then the absorbance was adjusted to 0.9547 with distilled water. Precisely 40 µL solution of the compounds were added to 3 mL ABTS^+ solution and incubated at 298 K for 30 min in the dark. Changes in concentration of ABTS^+ were measured at 734 nm on a spectrophotometer. The degree of ABTS^+ decolourisation was a template for evaluating the percentage proton-donating potential (%PDP) of the test compounds [24]; estimated from Equation (3). The IC50 (μM) of the compounds were determined by linear regression analysis, and all analyses were carried out in triplicate. (3) % PDP = 100⌊(Abs. of ABTS ^+ − Abs. of test compound)/(Abs. of ABTS^+)⌋

[8] = test system: Staphylococcus aureus; assay: Broth microdilution antimicrobial assay, S. aureus; assay type: cell-based; details: for MBC: Staphylococcus aureus, read-out: MBC S. aureus
Procedure: as §1, §2, §3, §4

[9] = DPPH radical scavenging activity; details: absorbance at 517 nm, 30 min; mean ± SD (n = 3)
Procedure: as §5
The scavenging activity of compounds (1–12) was evaluated by adding an ethanolic solution of DPPH (300 μL, 0.05 mM) and incubated for 30 min in the dark. After that, changes in the absorbance of the mixture were measured at 517 nm on a UV-Vis spectrophotometer. The percentage radical scavenging activities (%RSA) and half maximal inhibitory concentration (IC50) of the compounds were estimated from Equation (2) and by linear regression analysis, respectively. All studies were carried out in triplicate. (2) % RSA= 100⌊(Abs. of DPPH − Abs. of test compound)/(Abs. of DPPH)⌋

[10] = test system: Salmonella typhi; assay: Broth microdilution antimicrobial assay, S. typhi; assay type: cell-based; details: Salmonella enterica, TYPHI, read-out: MBC S. typhi
Procedure: as §1, §2, §3, §4

[11] = test system: Candida albicans; assay: Broth microdilution antimicrobial assay, C. albicans; assay type: cell-based
Procedure: as §1, §2, §3, §4

[12] = target: α-glucosidase; assay: α-Glucosidase inhibitory activity; assay type: biochemical; details: Means ×10^2 ± SD from at least three experiments
Procedure: The inhibitory activity of Schiff bases (1-9) against α-glucosidase was assessed by the method previously described by […] et al. […] Then, approximately 0.2 mL of Schiff base solution was mixed with 1.0 mL of 50 mM sodium phosphate buffer (pH 6.9) and 50 μL of α-glucosidase solution (2 U/mL). Thereafter, incubated at 37 °C for 10 min, followed by the addition of exactly 50 μL of 0.7 mM p-nitrophenyl-α-D-glucopyranoside solution in 50 mM sodium phosphate buffer (pH 6.9) and further incubated for 30 min at 37 °C. The reaction was terminated by the addition of 2.0 mL solution of 0.5 M Na2CO3. 0.3 mL aliquot of the above mixture was mixed with 4.7 mL of distilled water and the absorbance measured at 405 nm. […] (6) α - glucosidase inhibition (%) = (Ae - ASB/Ae)100 where Ae is the absorbance of the enzyme solution after incubation and ASB is the absorbance after incubation of Schiff bases solution. The assay was performed in triplicate.

[13] = test system: Fungi (Aspergillus niger, Candida albicans); assay: Broth microdilution MIC, antifungal (fungus not specified); assay type: cell-based; details: read-out: MIC (antifungal)
Procedure: as §1, §2, §3
The antimicrobial activity of Schiff bases (1–9), was evaluated using 96-well broth microdilution method as described by de Rapper et al. (2013) and Akhalwaya et al. (2018) with slight modifications. Columns 1–11 was filled 50 µL LB, followed by the addition of 50 µL of Schiff base to column 1. Thereafter, 50 µL of Schiff bases from column 1 was transferred by multichannel pipette to columns 2–10, resulting in 50 µL Schiff bases per well. Column 11 contained 100 µL of diluted standardised inoculum, while Column 12 contained 100 µL of LB as a control to monitor sterility. Then, 50 µL of the microorganism suspension was then added to columns 1–10 and the control column 11. […]

[14] = relative to o-hydroxy derivative (8)

SMILES: O=[N+]([O-])c1ccc(C=Nc2cc(O)[nH]n2)cc1 [Compound 1, 3-(((4-nitrophenyl)methylidene)amino)-1H-pyrazol-5-ol]
- IC50 [1]: 420 ± 36 µM
- MFC ([2]; read-out: MFC A. niger): > 4.31 µM
- IC50 [3]: ≥ 290 µM
- IC50 [4]: 350 ± 5 µM
- MBC [5]: 4.31 µM (≈ 1 µg/mL)
- MBC [6]: 4.31 µM (≈ 1 µg/mL)
- IC50 [7]: 410 ± 6 µM
- MBC [8]: 4.31 µM (≈ 1 µg/mL)
- IC50 [9]: 290 ± 9 µM
- MBC [10]: 2.15 µM (≈ 0.499 µg/mL)
- MFC ([11]; read-out: MFC C. albicans): > 4.31 µM
- melting point: 285 °C
- IC50 [12]: 540 ± 44 µM

SMILES: O=[N+]([O-])c1ccc(C=Nc2c(O)cc(S(=O)(=O)O)c3ccccc23)cc1 [Compound 7, 4-(4-nitrobenzylideneamino)-3-hydroxynaphthalene-1-sulphonic acid]
- IC50 [1]: 730 ± 16 µM
- MFC ([2]; * = no fungicidal effect at the evaluated concentration, n = 3, read-out: MFC A. niger): 2.69 µM (≈ 1 µg/mL)
- MIC [13]: 0.67 µM (≈ 0.249 µg/mL)
- IC50 [3]: ≥ 50 µM
- IC50 [4]: 160 ± 90 µM
- MBC [5]: > 2.69 µM
- antibacterial activity (growth inhibition), E. faecalis [5, 14]: very potent
- MBC [6]: 1.34 µM (≈ 0.499 µg/mL)
- antibacterial activity (growth inhibition), E. coli [6, 14]: very potent
- IC50 [7]: 50 ± 5 µM
- MBC [8]: > 2.69 µM
- antibacterial activity (growth inhibition), S. aureus [8, 14]: very potent
- IC50 [9]: 200 µM
- MBC [10]: > 2.69 µM
- MFC ([11]; 24 h, * = no fungicidal effect at the evaluated concentration, n = 3, read-out: MFC C. albicans): 1.53 µM (≈ 0.57 µg/mL)
- melting point: 200 °C
- IC50 [12]: 961 ± 84 µM
